Test results reported in patent publication US9895370B2, “Pharmaceutical composition for preventing or treating of cirrhosis of liver comprising G protein coupled receptor 119 ligand as an active ingredient” (DONGGUK UNIVERSITY INDUSTRY—ACADEMIC COOPERATION FOUNDATION, priority 2015, dated 2018).

What was measured:
[1] = system: mouse embryonic fibroblasts (MEFs); assay: collagen I and α-SMA protein expression in mouse embryonic fibroblasts (western blot); assay type: cell-based; conditions: FIG. 2b
Experimental: Sodium dodecylsulfate-polyacrylamide gel electrophoresis (SDS-PAGE) was performed using a gel electrophoresis device (Mighty Small SE 250, Hoefer Scientific Instruments, San Francisco) according to the method established by the inventors. A lysed cell fraction was diluted with a sample dilution buffer [63 mM Tris (pH. 6.8), 10% glycerol, 2% SDS, 0.0013% bromophenol blue, 5% β-mercaptoethanol], and subjected to electrophoresis in an electrode buffer (15 g Tris, 72 g glycerin and 5 g SDS contained in an 1 L solution) using a 8-12% gel. After electrophoresis, the gel was transferred to a nitrocellulose membrane to transfer proteins using an electrophoresis device for transfer in a transfer buffer (25 mM Tris, 192 mM glycerin, 20% v/v methanol (pH. 8.3)] at 40 mA for 3 hours. The nitrocellulose membrane was reacted with first antibodies, reacted with horseradish peroxidase-conjugated goat anti-rabbit IgG and horseradish peroxidase-conjugated goat anti-mouse IgG as secondary antibodies for 1 hour, and visualized using an ECL chemiluminescence system (Amersham, Gaithesberg, Mass.).

[2] = system: C57BL/6 mice with liver fibrosis induced by carbon tetrachloride; assay: carbon tetrachloride (CCl4)-induced liver fibrosis animal model; assay type: in vivo, mouse; conditions: for ALT / AST / D-BIL / T-BIL: blood
Experimental: 6-week-old male C57BL/6J mice (Joongang laboratory animal, Seoul) were acclimated in a laboratory environment for 1 week with solid feed, and randomly arranged in control groups and experimental groups according to randomized block design. Then, carbon tetrachloride (1 ml/kg) was administered to 6-week-old male C57BL/6 mice (Joongang laboratory animal, Seoul) twice a week for three weeks to induce liver fibrosis, and a GPR119 ligand (10 mg/kg) suspended in 40% PEG400 was orally administered thereto once a day for five days per week. For liver fibrosis models induced by dimethylnitrosamine (DMN), DMN (10 mg/kg) was administered to mice three times a week to induce liver fibrosis. As the control group, a vehicle-treated group was used. After termination of the experiment, the laboratory animals were fasted for 12 hours or more, and anesthetized with Zoletil to obtain blood and the liver, and the liver was washed with 0.1 M phosphate buffered saline (PBS; pH 7.4) and weighed. The blood obtained from the abdominal aorta was centrifuged in an SST tube at 3000×RPM for 20 minutes to isolate the serum.
For the above-mentioned laboratory animals, serum alanine transaminase (ALT), aspartate transaminase (AST), total bilirubin (T-BIL) and direct bilirubin (D-BIL) were analyzed using an automated hematology analyzer, Spectrum [(Abbott Laboratories, Abbott Park, Ill.)].
The liver samples obtained as described above were prepared into sections, and the tissue section was fixed with 10% buffered neutral formalin and embedded in paraffin. Afterward, the resulting section was sliced to a 4-μm thickness, and put on a slide to fix a specimen, stained with sirius red, and observed using an optical microscope.
A predetermined amount of liver tissue was homogenized in a mortar with liquid nitrogen and a lysis buffer, and the resulting tissue solution was transferred into a new tube and then vortexed. The tissue solution was centrifuged at 14,000 rpm and 4° C. for 20 minutes, and the intermediate layer was extracted to quantify a protein by a Bradford method. 30 μg of proteins were analyzed by electrophoresis using an SDS polyacrylamide gel, and the change of protein expression was analyzed by western blot.
To examine improvement of liver fibrosis by the GPR119 ligand, in an animal model having liver fibrosis induced by carbon tetrachloride (CCl4), an effect of the GPR119 ligand on inhibiting liver fibrosis was observed.
First, 1 ml/kg of carbon tetrachloride was intraperitoneally administered twice a week, and also orally administered with the GPR119 ligand (MBX-2982) at doses of 20 and 40 mg/kg, respectively, once a day for 5 days a week. Three weeks later, liver tissue was extracted, subjected to sirius red staining for confirming collagen production and immunohistochemical staining for confirming expression of a HSC activation marker, that is, α-SMA, and then compared with a control group and a carbon tetrachloride only-treated group.

[3] = system: cAMP/PKA (cyclic AMP/Protein kinase A); assay: activation of GPR119 signaling pathway cAMP/PKA, with PKA inhibitor H-89; assay type: cell-based; conditions: FIG. 4a
Experimental: First, when a PKA inhibitor H-89 was treated, a change in action of the GPR119 ligand was examined.

[4] = system: AMP-activated protein kinase (AMPK); assay: AMPK activation (AMPK and ACC phosphorylation) in LX-2; assay type: cell-based, human; conditions: LX-2, time-dependent treatment; FIG. 4b
Experimental: (§1) A human HSC line (LX-2, Milipore, U.S.A.) was plated in a 6-well plate, and grown to confluency in DMEM supplemented with 1% penicillin-streptomycin (Hyclone, U.S.A.) and 2% fetal bovine serum (Hyclone, U.S.A.) at 37° C. in a 5% CO2 incubator. For a further experiment, the confluent HSC line was incubated in an FBS-free medium, instead of the 2% FBS-added medium.
Sodium dodecylsulfate-polyacrylamide gel electrophoresis (SDS-PAGE) was performed using a gel electrophoresis device (Mighty Small SE 250, Hoefer Scientific Instruments, San Francisco) according to the method established by the inventors. A lysed cell fraction was diluted with a sample dilution buffer [63 mM Tris (pH. 6.8), 10% glycerol, 2% SDS, 0.0013% bromophenol blue, 5% β-mercaptoethanol], and subjected to electrophoresis in an electrode buffer (15 g Tris, 72 g glycerin and 5 g SDS contained in an 1 L solution) using a 8-12% gel. […]

Smad3 and p300 = assay: Smad3-p300 interaction, Smad3 acetylation and AMPK-p300 binding in LX-2 (immunoprecipitation); assay type: cell-based, human
Experimental: as §1
Total fraction protein was reacted with corresponding antibodies at 4° C. for 12 hours or more. An antigen-antibody conjugate was reacted with protein G-agarose at 4° C. for 2 hours to precipitate, and then reacted with 2× Laemmli buffer. The extracted protein was observed by an immunochemical method.
According to existing reports, AMPK activation in HSCs inhibits the interaction between Smad3 and p300 and inhibits the expression of a liver fibrosis-inducing factor through elevation of proteasomal degradation of the transcriptional coactivator p300. Thus, the influence of the GPR119 ligand on the interaction between Smad2/Smad3 and p300 was examined.
Subsequently, in the present invention, a mechanism for inhibiting the Smad-p300 interaction due to AMPK activation was investigated.

HSC line LX-2 = assay: PDGF-induced HSC proliferation in LX-2; assay type: cell-based, human; conditions: FIG. 5a
Experimental: as §1

[5] = 40 mg/kg oral once a day 5 days a week, 3 weeks, FIG. 3a
[6] = 40 mg/kg, western blot, FIG. 3c

Compound: CCc1cnc(N2CCC(c3nc(COc4ccc(-n5cnnn5)cc4)cs3)CC2)nc1 [MBX-2982, 4-((4-(1H-tetrazol-1-yl)phenoxy)methyl)-2-(1-(5-ethylpyrimidin-2-yl)piperidin-4-yl)thiazole]
- collagen I expression [1]: inhibited
- α-SMA expression [1]: inhibited
- collagen production (sirius red staining) in liver tissue [2, 5]: significantly reduced
- α-SMA expression (immunohistochemical staining) in liver tissue [2, 5]: significantly reduced
- amount of hydroxyproline ([2]; 40 mg/kg oral, FIG. 3b): statistically significantly reduced
- expression of TGFβ protein in liver tissue [2, 6]: statistically significantly inhibited
- expression of collagen I protein in liver tissue [2, 6]: statistically significantly inhibited
- expression of α-SMA protein in liver tissue [2, 6]: statistically significantly inhibited
- ALT ([2]; CCl4 + MBX 20 (20 mg/kg oral)): 38.55 U/L
- AST ([2]; CCl4 + MBX 20 (20 mg/kg oral)): 94.06 U/L
- D-BIL ([2]; CCl4 + MBX 20 (20 mg/kg oral)): 0.11 mg/dL
- T-BIL ([2]; CCl4 + MBX 20 (20 mg/kg oral)): 0.20 mg/dL
- ALT ([2]; CCl4 + MBX 40 (40 mg/kg oral)): 32.06 U/L
- AST ([2]; CCl4 + MBX 40 (40 mg/kg oral)): 68.11 U/L
- D-BIL ([2]; CCl4 + MBX 40 (40 mg/kg oral)): 0.12 mg/dL
- T-BIL ([2]; CCl4 + MBX 40 (40 mg/kg oral)): 0.23 mg/dL
- cAMP activation [3]: observed
- action on inhibiting collagen I and TGFβ expression when PKA inhibitor H-89 was treated ([3]; with H-89): not offset
- AMPK activation (AMPK and ACC phosphorylation) [4]: highly activated
- Smad3 acetylation elevated by TGFβ1 (Smad3 and p300; LX-2, FIG. 4e): considerably inhibited
- interaction between Smad3 and p300 elevated by TGFβ1 (Smad3 and p300; LX-2, FIG. 4e): considerably inhibited
- binding of activated AMPK to p300 (Smad3 and p300; LX-2 treated with ligand alone, FIG. 4g): directly bound to p300
- HSC proliferation induced by PDGF (HSC line LX-2): inhibited
